Values of other authors, collected in US20050136438A1, “Genetic analysis for stratification of cancer risk” (priority 2003, published 2005).
Counter-ions that a name gives are not always drawn.

- solubility in water: very slightly soluble
SMILES: O=C(c1ccc(OCCN2CCCCC2)cc1)c1c(-c2ccc(O)cc2)sc2cc(O)ccc12 [Raloxifene HCl, methanone, [6-hydroxy-2-(4-hydroxyphenyl)benzo[b]thien-3-yl]-[4-[2-(1-piperidinyl)ethoxy]phenyl]-hydrochloride]
